Each block holds one molecule with its values, some of them ahead of it.
Key:
[1] = Henry solubility constant Hcp at 293 K (mol/(m3 Pa))
[2] = Henry solubility constant Hcp at 298.15 K (mol/(m3 Pa))
[3] = reference: Snider and Dawson (1985)
[4] = reference: Buttery et al. (1965)
[5] = reference: Souchon et al. (2004)
[6] = reference: McFall et al. (2020)

Structure (SMILES): COP(=O)(OC)OC [phosphoric acid, trimethyl ester]
- Henry solubility constant Hcp at 293 K ([1]; reference: Wolfenden and Williams (1983)): 1400

Structure (SMILES): CCCC(=O)OO[N+](=O)[O-] [nitro butaneperoxoate]
- Henry solubility constant Hcp at 293 K ([1]; reference: Kames and Schurath (1995)): 0.023

Structure (SMILES): CCOP(=S)(OCC)Oc1nc(Cl)c(Cl)cc1Cl [chlorpyrifos]
- Henry solubility constant Hcp at 293 K ([1]; reference: Rice et al. (1997b)): 3.1

Structure (SMILES): OBr [hypobromous acid]
- Henry solubility constant Hcp at 293 K ([1]; reference: Blatchley et al. (1992)): > 19
- Henry solubility constant Hcp at 293 K ([1]; reference: McCoy et al. (1990)): 19

Structure (SMILES): CCC(C)O (centres undefined) [2-butanol]
- Henry solubility constant Hcp ([2]; reference: Butler et al. (1935)): 0.96
- Henry solubility constant Hcp [2, 3]: 1.1

Structure (SMILES): C1CCNCC1 [piperidine]
- Henry solubility constant Hcp ([2]; reference: Bernauer and Dohnal (2009)): 2.8

Structure (SMILES): CC(F)(F)Cl [1-chloro-1,1-difluoroethane]
- Henry solubility constant Hcp ([2]; reference: Chang and Criddle (1995)): 0.00015
- Henry solubility constant Hcp ([2]; reference: Kutsuna (2013)): 0.00015
- Henry solubility constant Hcp ([2]; reference: Maaßen (1995)): 0.00014
- Henry solubility constant Hcp ([2]; reference: Reichl (1995)): 0.00014

Structure (SMILES): c1ccc(-c2ccccc2)cc1 [biphenyl]
- Henry solubility constant Hcp ([2]; reference: Mackay et al. (1979)): 0.024

Structure (SMILES): C=CC=O [propenal]
- Henry solubility constant Hcp [2, 3]: 0.072

Structure (SMILES): II [iodine (molecular)]
- Henry solubility constant Hcp ([2]; reference: Eguchi et al. (1973)): 0.028

Structure (SMILES): O=C(O)CCCC(=O)O [pentanedioic acid]
- Henry solubility constant Hcp ([2]; reference: Mentel et al. (2004)): 1.9e+07

Structure (SMILES): ClC1C(Cl)C(Cl)C(Cl)C(Cl)C1Cl (stereo not drawn) [β-1,2,3,4,5,6-hexachlorocyclohexane]
- Henry solubility constant Hcp ([2]; reference: Sahsuvar et al. (2003)): 28

Structure (SMILES): OCC(O)CO [1,2,3-propanetriol]
- Henry solubility constant Hcp ([2]; reference: Butler and Ramchandani (1935)): 580

Structure (SMILES): FCCl [chlorofluoromethane]
- Henry solubility constant Hcp ([2]; reference: Boggs and Buck (1958)): 0.0015

Structure (SMILES): CC(=O)C(F)(F)F [1,1,1-trifluoro-2-propanone]
- Henry solubility constant Hcp ([2]; reference: Betterton (1991)): 1.4

Structure (SMILES): CS(C)=O [dimethylsulfoxide]
- Henry solubility constant Hcp ([2]; reference: Lee and Zhou (1994)): > 9900
- Henry solubility constant Hcp ([2]; reference: Watts and Brimblecombe (1987)): 940

Structure (SMILES): CC(=O)CC(C)C [4-methyl-2-pentanone]
- Henry solubility constant Hcp ([2]; reference: Hovorka et al. (2019)): 0.065
- Henry solubility constant Hcp ([2]; reference: Kim et al. (2000)): 0.039

Other lines, results leading:

- Henry solubility constant Hcp ([2]; reference: Fichan et al. (1999)): 0.056
Structure (SMILES): C=C(C)C1CCC2(C)OC2C1 (centres undefined) [limonene oxide]

- Henry solubility constant Hcp ([2]; reference: Dohnal and Fenclová (1995)): 13
- Henry solubility constant Hcp ([2]; reference: Feigenbrugel et al. (2004b)): 10
- Henry solubility constant Hcp ([2]; reference: Parsons et al. (1972)): 13
Structure (SMILES): Cc1ccc(O)cc1 [1-hydroxy-4-methylbenzene]

- Henry solubility constant Hcp ([2]; reference: Roberts and Pollien (1997)): 0.81
Structure (SMILES): CCc1ncc(C)nc1CC [2,3-diethyl-5-methylpyrazine]

- Henry solubility constant Hcp ([2]; reference: Maaßen (1995)): 0.0005
- Henry solubility constant Hcp ([2]; reference: Reichl (1995)): 0.00049
- Henry solubility constant Hcp ([2]; reference: Zheng et al. (1997)): 0.00049
Structure (SMILES): CC(F)F [1,1-difluoroethane]

- Henry solubility constant Hcp [2, 4]: 0.06
- Henry solubility constant Hcp [2, 5]: 0.035
Structure (SMILES): CCCCCCC=O [heptanal]

- Henry solubility constant Hcp [2, 4]: 0.17
Structure (SMILES): CCCCCCCCCC=O [decanal]

- Henry solubility constant Hcp [2, 6]: 12000
Structure (SMILES): COc1cc(CCC(C)=O)ccc1O [zingerone]

- Henry solubility constant Hcp [2, 6]: 96000
Structure (SMILES): COc1cc(CO)ccc1O [vanillyl alcohol]

- Henry solubility constant Hcp ([2]; reference: Karl et al. (2008)): 0.33
Structure (SMILES): COC(=O)c1ccccc1O [2-hydroxybenzoic acid methyl ester]

- Henry solubility constant Hcp ([2]; reference: Wetlaufer et al. (1964)): 2.9e-05
Structure (SMILES): Cc1c[nH]c2ccccc12 [3-methylindole]

- Henry solubility constant Hcp ([2]; reference: Brockbank et al. (2013)): 0.0027
Structure (SMILES): Cc1ccc(Cl)cc1Cl [2,4-dichloro-1-methylbenzene]

- Henry solubility constant Hcp ([2]; reference: Bissonette et al. (1990)): 0.0029
Structure (SMILES): C=Cc1ccccc1 [ethenylbenzene]

- Henry solubility constant Hcp ([2]; reference: Aprea et al. (2007)): 0.024
- Henry solubility constant Hcp ([2]; reference: Fenclová et al. (2014)): 0.029
- Henry solubility constant Hcp ([2]; reference: Landy et al. (1995)): 0.024
- Henry solubility constant Hcp ([2]; reference: Landy et al. (1996)): 0.04
- Henry solubility constant Hcp [2, 5]: 0.026
Structure (SMILES): CCCC(=O)OCC [ethyl butanoate]

- Henry solubility constant Hcp ([2]; reference: Jou and Mather (2000)): 8.7e-06
- Henry solubility constant Hcp ([2]; reference: Jönsson et al. (1982)): 8.2e-06
Structure (SMILES): CCCCC [pentane]

- Henry solubility constant Hcp ([2]; reference: Aprea et al. (2007)): 0.0099
Structure (SMILES): CCCCCCCC(=O)OC [methyl octanoate]

- Henry solubility constant Hcp ([2]; reference: Aprea et al. (2007)): 0.019
Structure (SMILES): CCCCCC(=O)OC [methyl hexanoate]

- Henry solubility constant Hcp ([2]; reference: Khan and Brimblecombe (1992)): 13
- Henry solubility constant Hcp ([2]; reference: Khan et al. (1995)): 13
- Henry solubility constant Hcp ([2]; reference: Kim and Kim (2016)): 9.9
- Henry solubility constant Hcp ([2]; reference: von Hartungen et al. (2004)): 7.5
Structure (SMILES): CCCCCC(=O)O [hexanoic acid]

— Sander's compilation of Henry's law constants
